# Measurements published in ChEMBL document CHEMBL5331060, “Bisindole natural products: A vital source for the development of new anticancer drugs” (Eur J Med Chem, 2022).
# Key:
# MCF7 [1] = experiment: Antiproliferative activity against human MCF7 cells assessed as inhibition of cell growth incubated for 24 hrs by MTT assay; type: functional, cell-based; details: MCF7, 24 h
# A549 [2] = experiment: Antiproliferative activity against human A549 cells assessed as inhibition of cell growth incubated for 72 hrs by SRB assay; type: functional, cell-based; details: A549, 72 h
# MCF7 [3] = experiment: Antiproliferative activity against human MCF7 cells assessed as inhibition of cell growth incubated for 72 hrs by SRB assay; type: functional, cell-based; details: MCF7, 72 h
# HCT-116 = experiment: Cytotoxicity against human HCT-116 cells assessed as reduction in cell viability at 20 uM measured after 48 hrs by MTS assay relative to control; type: functional
# KB [4] = experiment: Antiproliferative activity against drug-sensitive human KB cells assessed as inhibition of cell growth; type: functional, cell-based
# [5] = Antiproliferative activity against vincristine-resistant human KB cells assessed as inhibition of cell growth; type: functional, cell-based
# [6] = Antiproliferative activity against mouse […] cells assessed as inhibition of cell growth; type: functional, cell-based
# SMMC-7721 = experiment: Antiproliferative activity against human SMMC-7721 cells assessed as inhibition of cell growth incubated for 48 hrs by MTS assay; type: functional, cell-based; details: SMMC-7721, 48 h
# A549 [7] = experiment: Antiproliferative activity against human A549 cells assessed as inhibition of cell growth incubated for 48 hrs by MTS assay; type: functional, cell-based; details: A549, 48 h
# HL-60 = experiment: Antiproliferative activity against human HL-60 cells assessed as inhibition of cell growth incubated for 48 hrs by MTS assay; type: functional, cell-based; details: HL-60, 48 h
# MCF7 [8] = experiment: Antiproliferative activity against human MCF7 cells assessed as inhibition of cell growth incubated for 48 hrs by MTS assay; type: functional, cell-based; details: MCF7, 48 h
# SW480 [9] = experiment: Antiproliferative activity against human SW480 cells assessed as inhibition of cell growth incubated for 48 hrs by MTS assay; type: functional, cell-based; details: SW480, 48 h
# KB [10] = experiment: Antiproliferative activity against human KB cells assessed as inhibition of cell growth incubated for 72 hrs by neutral red based colorimetric assay; type: functional
# HepG2 = experiment: Antiproliferative activity against human HepG2 cells assessed as inhibition of cell growth by MTT assay; type: functional, cell-based
# HeLa [11] = experiment: Antiproliferative activity against human HeLa cells assessed as inhibition of cell growth incubated for 48 hrs by MTT assay; type: functional, cell-based
# MCF7 [12] = experiment: Antiproliferative activity against human MCF7 cells assessed as inhibition of cell growth incubated for 48 hrs by MTT assay; type: functional, cell-based; details: MCF7, 48 h
# SW480 [13] = experiment: Antiproliferative activity against human SW480 cells assessed as inhibition of cell growth incubated for 48 hrs by MTT assay; type: functional, cell-based; details: SW480, 48 h
# HeLa [14] = experiment: Antiproliferative activity against human HeLa cells assessed as inhibition of cell growth incubated for 6 hrs; type: functional, cell-based
# HeLa [15] = experiment: Antiproliferative activity against human HeLa cells assessed as inhibition of cell growth incubated for 24 hrs; type: functional, cell-based
# MCF7 [16] = experiment: Antiproliferative activity against human MCF7 cells assessed as inhibition of cell growth by MTT assay; type: functional, cell-based
# LoVo = experiment: Antiproliferative activity against human LoVo cells assessed as inhibition of cell growth by MTT assay; type: functional, cell-based
structure (smiles),measurement,setting,value
O=C1C[C@H]2c3ccc(O)c(O)c3[C@]3(Nc4ccccc4C3=O)[C@]23C(=O)c2ccccc2N13,IC50,MCF7 [1],78.5 µM
O=C1C[C@@H]2c3cc(O)c(O)cc3[C@@]3(Nc4ccccc4C3=O)[C@@]23C(=O)c2ccccc2N13,IC50,MCF7 [1],32.2 µM
CC[C@@H]1CN(C)[C@H]2Cc3c([nH]c4ccccc34)[C@H](c3cc4c5c([nH]c4cc3OC)[C@@]3(C(=O)OC)C[C@H]4C[C@@H](CC)[C@@H]3N(CC5)[C@H]4CC(C)=O)C[C@H]1[C@@H]2C(=O)OC,IC50,A549 [2],< 10 µM
same,IC50,MCF7 [3],< 10 µM
same,Activity,HCT-116,70%
C/C=C1/CN2[C@H]3Cc4c([nH]c5ccc(O)c([C@H]6Cn7c8c(c9ccccc97)CCN7CC=C[C@@]6(CC)[C@H]87)c45)[C@@H]2C[C@@H]1[C@]3(CO)C(=O)OC,IC50,KB [4],0.57 µM
same,IC50,[5],0.57 µM
Brc1ccc2c(-c3nc(-c4c[nH]c5ccccc45)c[nH]3)c[nH]c2c1 [NORTOPSENTIN B],IC50,[6],7.8 µg/mL
CC[C@]12C=C([C@H]3C=C[C@@]4(CC)CC(C(=O)OC)=C5Nc6ccccc6[C@@]56CCN3[C@@H]46)CN3CC[C@]4(C(=C(C(=O)OC)C1)Nc1ccccc14)[C@@H]32,IC50,SMMC-7721,13.1 µM
same,IC50,A549 [7],13.1 µM
same,IC50,HL-60,13.1 µM
same,IC50,MCF7 [8],13.1 µM
same,IC50,SW480 [9],13.1 µM
C/C=C1/CN2CC[C@@]34c5cc(OC)c(-c6cc7c8c(n(C)c7cc6OC)[C@@H]6[C@H]7O[C@@H](C)[C@H](CN6C(=O)C(C)C)[C@H]7[C@H]8C(=O)OC)c(C)c5N[C@@]23CC[C@H]1[C@H]4C(=O)OC,IC50,KB [10],5 µM
CC[C@]12C=C[C@H](C3=C[C@@]4(CC)CC(C(=O)OC)=C5Nc6ccccc6[C@@]56CCN([C@@H]3CC(C)=O)[C@@H]46)N3CC[C@]4(C(=C(C(=O)OC)C1)Nc1ccccc14)[C@@H]32,IC50,SMMC-7721,13.1 µM
same,IC50,A549 [7],13.1 µM
same,IC50,HL-60,13.1 µM
same,IC50,MCF7 [8],13.1 µM
same,IC50,SW480 [9],13.1 µM
C/C=C1/CN(C)[C@H]2Cc3c([nH]c4ccccc34)[C@H](c3c(OC)ccc4c5c6n(c34)C[C@@H]3C[C@@H](CC)[C@@H](NCC5)[C@@]6(C(=O)OC)C3)C[C@H]1[C@]2(CO)C(=O)OC,IC50,HepG2,38.1 µM
CC[C@]12C=C[C@H]([C@@]34CN5CC[C@]67C(=C(C(=O)OC)C[C@](CC)([C@@H]3O4)[C@H]56)Nc3cc(OC)ccc37)N3CC[C@]4(C(=C(C(=O)OC)C1)Nc1cc(OC)ccc14)[C@@H]32,IC50,SMMC-7721,13.1 µM
same,IC50,A549 [7],13.1 µM
same,IC50,HL-60,13.1 µM
same,IC50,MCF7 [8],13.1 µM
same,IC50,SW480 [9],13.1 µM
CC[C@]12C=C([C@@H]3C=C[C@@]4(CC)CC(C(=O)OC)=C5Nc6ccccc6[C@@]56CCN3[C@@H]46)[C@@H](CC(C)=O)N3CC[C@]4(C(=C(C(=O)OC)C1)Nc1ccccc14)[C@@H]32,IC50,SMMC-7721,13.1 µM
same,IC50,A549 [7],13.1 µM
same,IC50,HL-60,13.1 µM
same,IC50,MCF7 [8],13.1 µM
same,IC50,SW480 [9],13.1 µM
CC[C@@]12CC(C(=O)OC)=C3Nc4cc5c(cc4[C@@]34CCN(C[C@@H]3O[C@@H]31)[C@@H]24)[C@@H]1[C@H](O5)[C@@H](O)[C@@]2(CC)CC(C(=O)OC)=C3Nc4c(cc(O)c(OC)c4OC)[C@@]34CCN1[C@@H]24,IC50,HeLa [11],1.42 µM
same,IC50,MCF7 [12],1.42 µM
same,IC50,SW480 [13],1.42 µM
CC[C@]1(O)C[C@@H]2CN(CCc3c([nH]c4ccccc34)[C@@](C(=O)OC)(c3cc4c(cc3OC)N(C)[C@H]3[C@@](O)(C(=O)OC)[C@H](OC(C)=O)[C@]5(CC)C=CCN6CC[C@]43[C@@H]65)C2)C1 [VINBLASTINE],IC50,KB [10],0.008 µM
N[C@H](CNC(=O)C(=O)c1c[nH]c2ccccc12)c1c[nH]c2cc(Br)ccc12,IC50,HeLa [14],165 µM
same,IC50,HeLa [15],146 µM
CC[C@]1(O)C[C@H]2C[C@](C(=O)OC)(c3cc4c(cc3OC)N(C)[C@@H]3[C@]45CCN4CC=C[C@@](CC)(C[C@]3(O)C(=O)OC)[C@H]45)c3[nH]c4ccccc4c3CC[N+]([O-])(C2)C1,IC50,HepG2,28.1 µM
same,IC50,MCF7 [16],42.7 µM
same,IC50,LoVo,> 100 µM
